Where “and” joins values, the source holds several entries; their conditions need not be identical. Equal values may be shown once.
Tests used:
Type in all cases: cell-based
[1] = target: T1, PSEN1 M233A–APH1A γ-secretase complex (Homo sapiens, UniProt P49768, M233A); experiment: Aβ40 secretion, MEF cell pool restored with PSEN1 M233A–APH1A; conditions: decimal comma; for IC50: PSEN1 M233A (TM5)–APH1A cell pool, N = 3 to 4, mean (95% CI)
T1 construct: expressed in transfected cells; host or cells: Psen1/2 double KO/Aph1ABC triple KO MEFs, pools without clonal selection
Procedure: (§1) We turned to experimental site–directed mutagenesis and selected a series of amino acids (Fig. 3) in the entrance channel for mutation to alanine. […] More importantly, they were all enzymatically active as shown by the secretion of Aβ40 in the supernatants of the cell cultures (Fig. 3B).
(§2) Conditional Psen1/2 double KO mice were crossed with conditional Aph1ABC triple KO mice ([29], [52], [58], [59]). At embryonic day 7.5, embryos were dissected and dissociated, and cells were plated in the presence of Dulbecco’s modified Eagle’s medium (DMEM)/F12 50% fetal calf serum (FCS) (Invitrogen). Primary MEFs were immortalized by transduction with LargeT antigen. Psen1/2 double KO/Aph1ABC triple KO MEFs were generated by transduction with a Cre-GFP–expressing adenoviral vector, and GFP-positive MEFs were sorted by fluorescence-activated cell sorting analysis. Psen1/2 Aph1ABC-deficient MEFs were maintained in DMEM/f12 10% FCS. To rescue γ-secretase expression, Psen1/2 double KO/Aph1ABC triple KO MEFs were transduced using Murine Stem Cell Virus retroviral vector system (pMSCV) viral vectors (Clontech) containing the human coding sequences of the different PSEN and APH1 homologs and the zeocin selection marker. An Internal Ribosome Entry Site sequence was cloned between the coding sequences for PSEN and APH1 to ensure co-expression of both proteins. Stable transfected cell lines were selected using 500-μg/ml zeocin (Invitrogen). Four different combinations were made: PSEN1 and APH1AL, PSEN1 and APH1B, PSEN2 and APH1AL, and PSEN2 and APH1B. These cell lines were transduced with pMSCV viral vectors (Clontech) expressing APP-C99-GFP-puromycin. […]
(§3) The number of plated cells and incubation times were determined in respect to linearity of Aβ peptide secretion, the dynamic range of Aβ peptide quantification in the medium, and sensitivity to dimethylsulfoxide (DMSO). […] The cell viability was assessed using the CellTiter-Glo Luminescent assay (Promega) that measures ATP production. […] We however measured five compounds at the Leuven site and noticed that absolute IC50 values were different (Fig. S2). […]

[2] = target: T2, PSEN1 I168A–APH1A γ-secretase complex (Homo sapiens, UniProt P49768, I168A); experiment: Aβ40 secretion, MEF cell pool restored with PSEN1 I168A–APH1A; conditions: decimal comma; for IC50: PSEN1 I168A (TM3)–APH1A cell pool, N = 3 to 4, mean (95% CI)
T2 construct: expressed in transfected cells; host or cells: Psen1/2 double KO/Aph1ABC triple KO MEFs, pools without clonal selection
Procedure: as §1, §2, §3

[3] = target: T3, PSEN1 I229A–APH1A γ-secretase complex (Homo sapiens, UniProt P49768, I229A); experiment: Aβ40 secretion, MEF cell pool restored with PSEN1 I229A–APH1A; conditions: decimal comma; for IC50: PSEN1 I229A (TM5)–APH1A cell pool, N = 3 to 4, mean (95% CI); for IC50 fold change to WT: PSEN1 I229A–APH1A cell pool
T3 construct: expressed in transfected cells; host or cells: Psen1/2 double KO/Aph1ABC triple KO MEFs, pools without clonal selection
Procedure: as §1
(§4) Conditional Psen1/2 double KO mice were crossed with conditional Aph1ABC triple KO mice ([29], [52], [58], [59]). At embryonic day 7.5, embryos were dissected and dissociated, and cells were plated in the presence of Dulbecco’s modified Eagle’s medium (DMEM)/F12 50% fetal calf serum (FCS) (Invitrogen). Primary MEFs were immortalized by transduction with LargeT antigen. Psen1/2 double KO/Aph1ABC triple KO MEFs were generated by transduction with a Cre-GFP–expressing adenoviral vector, and GFP-positive MEFs were sorted by fluorescence-activated cell sorting analysis. Psen1/2 Aph1ABC-deficient MEFs were maintained in DMEM/f12 10% FCS. To rescue γ-secretase expression, Psen1/2 double KO/Aph1ABC triple KO MEFs were transduced using Murine Stem Cell Virus retroviral vector system (pMSCV) viral vectors (Clontech) containing the human coding sequences of the different PSEN and APH1 homologs and the zeocin selection marker. An Internal Ribosome Entry Site sequence was cloned between the coding sequences for PSEN and APH1 to ensure co-expression of both proteins. Stable transfected cell lines were selected using 500-μg/ml zeocin (Invitrogen). Four different combinations were made: PSEN1 and APH1AL, PSEN1 and APH1B, PSEN2 and APH1AL, and PSEN2 and APH1B. These cell lines were transduced with pMSCV viral vectors (Clontech) expressing APP-C99-GFP-puromycin. After puromycin selection (5 μg/ml), GFP-positive cells were selected through FACS sorting. For the alanine mutagenesis experiment, pMSCV PSEN1-APH1A viral vectors were generated by using a long PCR-based QuikChange strategy (Stratagene). Stable cell lines without clonal selection were generated for each mutant as described above. All cell lines were regularly tested for the absence of mycoplasma and used for maximum 20 passages in culture.
as §3, with “(DMSO). […] MEF cells were plated in DMEM F12 supplemented with 10% FCS at 10,000 cells per well in 96-well clear bottom plates in the late afternoon and cultured for 16 h at 37 °C, 5% CO2.” for “(DMSO).”

[4] = target: T4, PSEN1 S169A–APH1A γ-secretase complex (Homo sapiens, UniProt P49768, S169A); experiment: Aβ40 secretion, MEF cell pool restored with PSEN1 S169A–APH1A; conditions: PSEN1 S169A (TM3)–APH1A cell pool; N = 3 to 4; mean (95% CI); decimal comma
T4 construct: expressed in transfected cells; host or cells: Psen1/2 double KO/Aph1ABC triple KO MEFs, pools without clonal selection
Procedure: as §1
Conditional Psen1/2 double KO mice were crossed with conditional Aph1ABC triple KO mice ([29], [52], [58], [59]). At embryonic day 7.5, embryos were dissected and dissociated, and cells were plated in the presence of Dulbecco’s modified Eagle’s medium (DMEM)/F12 50% fetal calf serum (FCS) (Invitrogen). Primary MEFs were immortalized by transduction with LargeT antigen. Psen1/2 double KO/Aph1ABC triple KO MEFs were generated by transduction with a Cre-GFP–expressing adenoviral vector, and GFP-positive MEFs were sorted by fluorescence-activated cell sorting analysis. Psen1/2 Aph1ABC-deficient MEFs were maintained in DMEM/f12 10% FCS. […]
as §3

[5] = target: T5, PSEN1 S170A–APH1A γ-secretase complex (Homo sapiens, UniProt P49768, S170A); experiment: Aβ40 secretion, MEF cell pool restored with PSEN1 S170A–APH1A; conditions: decimal comma; for IC50: PSEN1 S170A (TM3)–APH1A cell pool, N = 3 to 4, mean (95% CI)
T5 construct: expressed in transfected cells; host or cells: Psen1/2 double KO/Aph1ABC triple KO MEFs, pools without clonal selection
Procedure: as §1, §2, §3

[6] = target: T6, PSEN1 M146A–APH1A γ-secretase complex (Homo sapiens, UniProt P49768, M146A); experiment: Aβ40 secretion, MEF cell pool restored with PSEN1 M146A–APH1A; conditions: decimal comma; for IC50: PSEN1 M146A (TM2)–APH1A cell pool, N = 3 to 4, mean (95% CI); for IC50 fold change to WT: PSEN1 M146A–APH1A cell pool
T6 construct: expressed in transfected cells; host or cells: Psen1/2 double KO/Aph1ABC triple KO MEFs, pools without clonal selection
Procedure: as §1, §4
as §3, with “(DMSO). […] MEF cells were plated in DMEM F12 supplemented with 10% FCS at 10,000 cells per well in 96-well clear bottom plates in the late afternoon and cultured for 16 h at 37 °C, 5% CO2.” for “(DMSO).”

[7] = target: T7, PSEN1 I387A–APH1A γ-secretase complex (Homo sapiens, UniProt P49768, I387A); experiment: Aβ40 secretion, MEF cell pool restored with PSEN1 I387A–APH1A; conditions: decimal comma; for IC50: PSEN1 I387A (TM7)–APH1A cell pool, N = 3 to 4, mean (95% CI)
T7 construct: expressed in transfected cells; host or cells: Psen1/2 double KO/Aph1ABC triple KO MEFs, pools without clonal selection
Procedure: as §1, §2, §3

[8] = target: T8, PSEN1 L173A–APH1A γ-secretase complex (Homo sapiens, UniProt P49768, L173A); experiment: Aβ40 secretion, MEF cell pool restored with PSEN1 L173A–APH1A; conditions: decimal comma; for IC50: PSEN1 L173A (TM3)–APH1A cell pool, N = 3 to 4, mean (95% CI)
T8 construct: expressed in transfected cells; host or cells: Psen1/2 double KO/Aph1ABC triple KO MEFs, pools without clonal selection
Procedure: as §1, §2, §3

[9] = target: T9, PSEN1 WT–APH1A γ-secretase complex (Homo sapiens, UniProt P49768); experiment: Aβ40 secretion, MEF cell pool restored with PSEN1 WT–APH1A; conditions: decimal comma; for IC50 fold change to WT: PSEN1 WT–APH1A cell pool (reference); for IC50: PSEN1 WT–APH1A cell pool, N = 3 to 4, mean (95% CI)
T9 construct: expressed in transfected cells; host or cells: Psen1/2 double KO/Aph1ABC triple KO MEFs
Procedure: as §1, §4
The number of plated cells and incubation times were determined in respect to linearity of Aβ peptide secretion, the dynamic range of Aβ peptide quantification in the medium, and sensitivity to dimethylsulfoxide (DMSO). […] MEF cells were plated in DMEM F12 supplemented with 10% FCS at 10,000 cells per well in 96-well clear bottom plates in the late afternoon and cultured for 16 h at 37 °C, 5% CO2. In the morning of the second day, the medium was replaced with 60 μl of DMEM/F12 supplemented with 2% FCS, and GSI or DMSO (controls) were added. Compounds were tested in serial dilutions with concentrations ranging from […] to 0.1 nM with 3-fold changes. The final concentration of DMSO in all wells was 0.2%. Plates were put in the incubator again at 37 °C, 5% CO2. After 8 h, the culture media were collected, and 30 μl was used to measure Aβ40 peptides. The cell viability was assessed using the CellTiter-Glo Luminescent assay (Promega) that measures ATP production. All screens were performed at one site, and reported IC50 values throughout the manuscript are from this site (Beerse) unless otherwise indicated. We however measured five compounds at the Leuven site and noticed that absolute IC50 values were different (Fig. S2). The main goal of the current work is to explore the basis for inhibitor selectivity for different γ-secretases, and selectivity was consistent in the assays at the two sites (Fig. S2).
Standard 96-well SECTOR plates (MSD) were coated with 1.5 μg/ml anti-Aβ JRFcAβ40/28 capture antibody in a final volume of 50 μl of PBS 0.05% Tween 20. After overnight incubation at 4 °C, the plates were five times rinsed with PBS 0.05% Tween 20 and blocked with 150 μl per well of casein buffer (PBS with 1% casein, pH 7.4) for 4 h at room temperature. Standards (synthetic human Aβ 1–40) were diluted in culture media. […]

Row | Structure (SMILES) | IC50 [1] | IC50 [2] | IC50 fold change to WT ([2]; PSEN1 I168A–APH1A cell pool) | IC50 [3] | IC50 fold change to WT [3] | IC50 [4] | IC50 [5] | IC50 [6] | IC50 fold change to WT [6] | IC50 [7] | IC50 [8] | IC50 fold change to WT ([8]; PSEN1 L173A–APH1A cell pool) | IC50 fold change to WT [9] | IC50 [9] | IC50 fold change to WT ([1]; PSEN1 M233A–APH1A cell pool) | IC50 fold change to WT ([5]; PSEN1 S170A–APH1A cell pool) | IC50 fold change to WT ([7]; PSEN1 I387A–APH1A cell pool)
1 | O=S(=O)(c1ccc(Cl)cc1)N1[C@H]2CC[C@@H]([C@H]1c1ccc(C(F)(F)F)cc1)[C@@H](O)C2 [(+)-9b] | 0.462 µM | 0.015 µM | 0,511 fold | 0.042 µM | 1,440 fold | 0.0078 µM | 0.132 µM | 0.031 µM | 1,076 fold | 0.283 µM | 0.077 µM | 2,658 fold | 1 fold | 0.029 µM |  |  | 
2 | C[C@H](NC(=O)Cc1cc(F)cc(F)c1)C(=O)N[C@H](C(=O)OC(C)(C)C)c1ccccc1 [DAPT] | 0.449 µM | 0.043 µM |  | 0.334 µM | 1,980 fold | 0.026 µM | 0.139 µM | 0.234 µM | 1,386 fold | 0.882 µM | 0.028 µM |  | 1 fold | 0.169 µM | 2,658 fold | 0,821 fold | 5,225 fold and > 3 fold

Source: publication PMC10318456, “Selective inhibitors of the PSEN1–gamma-secretase complex” (The Journal of Biological Chemistry, 2023)
